Data published in US20100234417A1, “THYROTROPIN RELEASING HORMONE RECEPTOR-OREXIN RECEPTOR HETERO-DIMERS/-OLIGOMERS” (DIMERIX BIOSCIENCE PTY LTD., priority 2006, published 2010).
Ends that are not written are not given here.

What was measured:
Assay type in all cases: cell-based
[1] = system: thyrotropin releasing hormone receptor/orexin receptor hetero-dimer/-oligomer (OxR2 with HA-TRHR); assay: eBRET: OxR2/Rluc8 + barr2/Venus + HA-TRHR as IG3; conditions: FIG. 18
Procedure: (§1) Briefly, referring to FIGS. 1 to 3, the IGs are provided in the form of the two receptors (TRHR and OxR). One of the two is attached to an RC (IG1-RC1, IG3). A second IG (IG2-RC2) is derived from a molecule that interacts with the receptors upon ligand binding (e.g. beta-arrestin, or a mutant thereof).
(§2) Cells were seeded in 6-well plates at a density of approximately 630,000 cells/well (HEK293FT) or approximately 150,000 cells/well (COS-7) and maintained at 37° C., 5% CO2 in Complete Media (DMEM containing 0.3 mg/ml glutamine, 100 IU/ml penicillin and 100 μg/ml streptomycin (Gibco)) supplemented with 10% fetal calf serum (FCS; Gibco). […] Filtered light emissions were sequentially measured for 3-5 s in each of the ‘donor wavelength window’ (400-475 nm) and ‘acceptor wavelength window’ (>500 nm for EGFP or 520-540 nm for EYFP, Topaz (TYFP) or Venus). […] In this case, data are shown as ‘fluorescence/luminescence’ being the ratio of light emission through the ‘acceptor wavelength window’ over the 400-475 nm emission for a particular cell sample. Unless otherwise stated, BRET signals were measured in 96-well microplates.
(§3) Referring now to FIG. 18, eBRET signals were measured from cells transiently co-expressing OxR2/Rluc8 and barr2/Venus either with HA-TRHR or pcDNA3.

OxR2 = molecular target: T1, OxR2 (Homo sapiens, UniProt O43614); assay: BRET/eBRET beta-arrestin 2 recruitment to OxR2/Rluc or OxR2/Rluc8 without IG3 (pcDNA3); conditions: OxR2/Rluc8 + barr2/Venus + pcDNA3; FIG. 18
T1 construct: expressed in transfected cells; host or cells: HEK293 (HEK293FT)
T1 sequence (O43614 1-444): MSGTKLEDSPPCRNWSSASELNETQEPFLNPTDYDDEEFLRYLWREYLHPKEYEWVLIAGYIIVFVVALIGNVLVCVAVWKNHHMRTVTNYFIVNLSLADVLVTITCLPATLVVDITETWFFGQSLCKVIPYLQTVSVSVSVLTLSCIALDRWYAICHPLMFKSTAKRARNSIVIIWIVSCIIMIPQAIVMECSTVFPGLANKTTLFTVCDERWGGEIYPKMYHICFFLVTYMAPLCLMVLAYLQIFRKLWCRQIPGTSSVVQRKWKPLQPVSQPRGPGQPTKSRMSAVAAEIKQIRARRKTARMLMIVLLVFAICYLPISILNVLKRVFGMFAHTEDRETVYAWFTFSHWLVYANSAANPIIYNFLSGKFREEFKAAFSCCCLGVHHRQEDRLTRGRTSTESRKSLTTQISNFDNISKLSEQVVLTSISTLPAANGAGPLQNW
Procedure: as §1, §2, §3

[2] = system: thyrotropin releasing hormone receptor/orexin receptor hetero-dimer/-oligomer (TRHR with OxR2); assay: eBRET/BRET detection of TRHR-OxR2 association: TRHR/Rluc + tagged beta-arrestin + OxR2 as IG3 in HEK293 cells
Procedure: as §1
Cells were seeded in 6-well plates at a density of approximately 630,000 cells/well (HEK293FT) or approximately 150,000 cells/well (COS-7) and maintained at 37° C., 5% CO2 in Complete Media (DMEM containing 0.3 mg/ml glutamine, 100 IU/ml penicillin and 100 μg/ml streptomycin (Gibco)) supplemented with 10% fetal calf serum (FCS; Gibco). Transient transfections were carried out 24 h after seeding using GeneJuice (Novagen) or Metafectene (Biontex) according to manufacturer instructions. 24 h post-transfection, cells were washed with PBS, detached using 0.05% trypsin/0.53 mM EDTA, resuspended in HEPES-buffered phenol red free Complete Media containing 5% FCS and added to a poly-L-lysine-coated white microplate (Nunc). 48 h post-transfection, eBRET assays were carried out following pre-incubation of cells with EnduRen™ (Promega) at a final concentration of 30-40 μM, at 37° C., 5% CO2 for 2 h. For original BRET studies, the HEPES-buffered phenol red free Complete Media was replaced with PBS and coelenterazine h (Molecular Probes) added to a final concentration of 5 μM immediately prior to commencing the assay. […] Filtered light emissions were sequentially measured for 3-5 s in each of the ‘donor wavelength window’ (400-475 nm) and ‘acceptor wavelength window’ (>500 nm for EGFP or 520-540 nm for EYFP, Topaz (TYFP) or Venus). The BRET signal observed between interacting proteins is normalized by subtracting the background BRET ratio. […] In the following examples, the first calculation will be used, unless the signal is described as the ‘ligand-induced BRET ratio’. […] In this case, data are shown as ‘fluorescence/luminescence’ being the ratio of light emission through the ‘acceptor wavelength window’ over the 400-475 nm emission for a particular cell sample. Unless otherwise stated, BRET signals were measured in 96-well microplates. […]
Cells not pretreated with antagonist were pretreated with PBS instead for the same amount of time. […]

[3] = HEK293, TRHR/Rluc + barr2/Venus + OxR2, ligand 10^−6M, FIG. 4

| Compound | eBRET signal reached (ligand-induced BRET ratio) ([1]; gradual increase over time) | ligand-induced eBRET signal (OxR2) | time to eBRET signal peak [1] | eBRET signal [2, 3] | time for eBRET signal to reach its level [2, 3] | time for eBRET signal to reach plateau ([2]; TRHR/Rluc + HA-OxR2 + EGFP/barr1 or EGFP/barr2, FIG. 7) | time for eBRET signal to reach plateau ([2]; TRHR/Rluc + OxR2 + EGFP/barr1, FIG. 8) | time for eBRET signal to reach plateau ([2]; TRHR/Rluc + OxR2 + EGFP/barr1R169E, FIG. 8) | time for eBRET signal to reach plateau ([2]; TRHR/Rluc + OxR2 + EGFP/barr1 or EGFP/barr2, FIG. 5) | eBRET signal ([2]; TRHR/Rluc + barr2/Venus + OxR2, 10^−6M OxA, FIG. 6) | dose-response Hill slope ([2]; TRHR/Rluc + barr2/Venus + OxR2, FIG. 12) |
| --- | --- | --- | --- | --- | --- | --- | --- | --- | --- | --- | --- |
| NC(=O)[C@@H]1CCCN1C(=O)[C@H](Cc1cnc[nH]1)NC(=O)[C@@H]1CCC(=O)N1 [TRH, pGlu-His-Pro-NH2] | 0.05 | No ligand-induced eBRET signal was observed |  |  |  |  |  |  |  |  |  |
| OxA: orexin A; known orexin receptor modulator, used as IG3 ligand (modulator) (QPLPDCCRQKTCSCRLYELLHGAGNHAAGILTL; ends and bridges not checked; cysteine pairing not given here; UniProt O43612 34-66, looked up) |  |  | ≤ 5 min | 0.07-0.08 | up to 30 minutes | more than 10 minutes | more than 10 minutes | ≤ 20 min | more than 10 minutes | eBRET signal was observed | greater than 1 |
